Converted amounts (≈) assume the structure as drawn.

Results on 51 compounds are retold here after PubChem BioAssay AID1996.

For this data set the following is noted: buffer; pH 7.4; 200.0 µM.
`N/C(=N\OC(=O)c1ccc([N+](=O)[O-])cc1)c1ccccn1` yielded a solubility (kinetic) of 3.2 µg/mL (≈ 11.2 µM).

The compound `O=[N+]([O-])c1ccc(S(=O)(=O)c2ccccc2)nc1` registered a kinetic solubility above 39.6 µg/mL. `Cc1ccc(NC(=O)c2cccc3ccccc23)cc1` returned a solubility (kinetic) below 0.6 µg/mL. The value for `CN1CCC(N(C)C(=O)c2cccc(S(=O)(=O)N3CCc4ccccc43)c2)CC1` was above 62 µg/mL; that for `Nc1c(C(=O)O)cnn1-c1ccccc1` was above 30.5 µg/mL; that for `CCCN1CCN(C(=O)c2ccc3nc(CC)c(CC)nc3c2)CC1` was above 51.1 µg/mL. The value for `Cc1nc(C)c(C(=O)C2=C(O)C(=O)N(CCN(C)C)C2c2ccco2)s1` (stereo unspecified) was above 56.3 µg/mL; that for `O=C(COC(=O)CCC1CCCC1)NCc1ccc(Cl)cc1` was below 0.7 µg/mL; that for `COc1ccc(C2C(CN3CCOCC3)C(=O)N2c2ccccc2)cc1` (stereo unspecified) was above 52.9 µg/mL.

`CN(C)CCCNCCCNC(=O)/C(=N\O)c1ccccc1` gave a solubility (kinetic) above 46 µg/mL.

Turning to `Cc1ccccc1-c1nc2cc(NC(=O)C3CC3)ccc2o1`, the kinetic solubility came out at 0.8 µg/mL (≈ 2.74 µM). The value for `Cc1ccccc1S(=O)(=O)NCc1ccc(N2CCN(C)CC2)cc1` was 53.1 µg/mL (≈ 148 µM); that for `O=C(C1CC1)N1c2ccccc2Sc2ccccc21` was 7.1 µg/mL (≈ 26.6 µM).

Turning to `COc1ccccc1NC(=O)Nc1cccc(NC(C)=O)c1`, the kinetic solubility worked out at 34.2 µg/mL (≈ 114 µM). For `CC(=O)c1ccc(NC(=O)N2CCc3ccccc3C2)cc1`, the kinetic solubility was found to be 34.3 µg/mL (≈ 117 µM).

As to `CCOC(=O)C1CCN(S(=O)(=O)c2ccc(NC(C)=O)c(Cl)c2)CC1`, the solubility (kinetic) was 7.3 µg/mL (≈ 18.8 µM). The value for `O=C(Cn1c(=O)n(CC2CS2)c2ccccc21)N1CCCCC1` (stereo unspecified) was above 49.7 µg/mL; that for `COc1ccc(OCC(O)CNC2CCCC2)cc1.Cl` (stereo unspecified) was 42.6 µg/mL; that for `CCOc1ccc(S(=O)(=O)n2cnc(C)c2)cc1` was 38.5 µg/mL (≈ 145 µM). The compound `Cc1c([N+](=O)[O-])c(C(=O)NC2CCCC2)nn1C` displayed a solubility (kinetic) above 37.8 µg/mL. The value for `Cc1noc(C)c1S(=O)(=O)N(Cc1ccccc1)C(C)C` was 36.5 µg/mL (≈ 118 µM); that for `CC(=O)Nc1cccc(NC(=O)CCNC(=O)c2ccccc2)c1` was above 48.8 µg/mL.

In turn, `CCC1CN(C(=O)NCc2ccc(F)cc2)c2cc(C)ccc2O1` (stereo unspecified) came in with a solubility (kinetic) of 4.3 µg/mL (≈ 13.1 µM). The value for `COc1ccc(CCNC(=O)c2ccc(OC)c(OC)c2)cc1OC` was 39.6 µg/mL (≈ 115 µM); that for `NC(Cc1c[nH]c2ccccc12)C(=O)NCc1ccco1` (stereo unspecified) was above 42.5 µg/mL; that for `CCCCCc1nnc(NC(=O)c2ccc(=O)n(C)n2)s1` was above 46.1 µg/mL.

As to `COc1cccc(-c2noc(CCC(=O)NC3CCCC3)n2)c1`, the solubility (kinetic) is above 47.3 µg/mL.

Turning to `O=C(NCCCN1CCOCC1)C(c1ccccc1)c1ccccc1`, the solubility (kinetic) was above 50.8 µg/mL. The value for `COc1ccc(CCNC(=O)COC(=O)/C=C/c2ccc3c(c2)OCO3)cc1` was 2.2 µg/mL (≈ 5.74 µM); that for `COCc1cc(=O)[nH]c2cc(NC(=O)c3cccc(OC)c3)c(C)cc12` was 1.1 µg/mL (≈ 3.12 µM); that for `O=C1CN=C(c2ccc(F)cc2)c2oc3ccccc3c2N1` was 0.4 µg/mL (≈ 1.36 µM). In turn, `O=C(CSc1cccc[n+]1[O-])C12CC3CC(CC(C3)C1)C2` showed a solubility (kinetic) above 45.5 µg/mL.

In the case of `COc1ccc(NC(=O)C2C3CCC(O3)C2C(=O)O)c(C)c1` (stereo unspecified), the solubility (kinetic) is 45.4 µg/mL (≈ 149 µM).

Compound `CC1CCCCC1NC(=O)CN1C(=O)c2ccccc2S1(=O)=O` (stereo unspecified) displayed a solubility (kinetic) of 25.7 µg/mL (≈ 76.4 µM). The value for `COc1ccc(NS(=O)(=O)c2ccc(C(=O)N3CCN(c4ccc(F)cc4)CC3)cc2)cc1` was 12.1 µg/mL (≈ 25.8 µM); that for `CC(=O)c1c(C)nc2ccc([N+](=O)[O-])cc2c1-c1ccccc1` was 21.9 µg/mL (≈ 71.5 µM).

For `CCc1ccc(C(=O)OCC(=O)N2CCCCCC2)cc1`, the kinetic solubility is 14.5 µg/mL (≈ 50.1 µM). The value for `Cc1[nH]c2ccccc2c1CCNCc1ccco1.Cl` was above 43.6 µg/mL; that for `COc1cccc(NC(=O)NCCN2CCCCC2)c1` was 37.8 µg/mL (≈ 136 µM). The value for `C=CCn1c([O-])c(C(C)=O)c(=O)[nH]c1=O.C[NH+](C)C` was above 40.4 µg/mL; that for `O=C(Nc1nccs1)c1ccc2c(c1)OCO2` was 3 µg/mL (≈ 12.1 µM); that for `CCc1cc2c(N[C@@H](Cc3ccccc3)C(=O)O)ncnc2s1` was above 49.1 µg/mL. The value for `Cc1cccc(C(=O)Nc2ccc(Oc3cnccn3)cc2)c1` was 5.6 µg/mL (≈ 18.3 µM); that for `O=C(Nc1ccccc1OC(F)(F)F)c1ccc([N+](=O)[O-])cc1` was 6.8 µg/mL (≈ 20.8 µM); that for `O=c1[nH]c(/C=C/c2ccccc2Cl)nc2ccccc12` was below 0.3 µg/mL. `O=C(Nc1cccnc1)c1ccc(Cl)cc1[N+](=O)[O-]`: the kinetic solubility is above 41.7 µg/mL. The value for `CN1C(=O)C(=Cc2coc3ccccc3c2=O)C(=O)N(C)C1=O` was above 46.8 µg/mL. The value for `O=C(CO/N=C/c1ccc(OC(F)F)cc1)NC1CCCCC1` was 6.7 µg/mL (≈ 20.5 µM); that for `CN(C(=O)c1ccc(F)cc1)c1ccc(OCC(=O)Nc2ccccc2C(=O)O)cc1` was above 63.4 µg/mL; that for `Cl.Clc1ccc(Cn2c(CN3CCCC3)nc3ccccc32)cc1` was 49.5 µg/mL. The value for `Cc1cc(OC(=O)c2ccccc2C)c([N+](=O)[O-])c(=O)[nH]1` was above 43.2 µg/mL.
